≈ marks a conversion by molar mass, not a printed value.
Key:
[1] = Chemopreventive activity in Chinese hamster embryonic cells assessed as inhibition of benzo[a]pyrene metabolism to water soluble derivatives; assay type: functional, Cricetulus griseus; details: for IC50: Cricetulus griseus, read-out: ID50 (the source's name)
P388 [2] = assay: In vivo antitumor activity against mouse P388 cells at 20 mg/kg relative to control; assay type: functional
[3] = Chemopreventive activity in Chinese hamster embryonic cells assessed as inhibition of benzo[a]pyrene metabolism at 10 to 25 ug/ml; assay type: functional, Cricetulus griseus
HT-29 = assay: Cytotoxicity against human HT-29 cells; assay type: functional; details: for EC50: Homo sapiens, HT-29, read-out: ED50 (the source's name)
MCF7 = assay: Cytotoxicity against human MCF7 cells; assay type: functional; details: read-out: ED50 (the source's name)
A549 = assay: Cytotoxicity against human A549 cells; assay type: functional; details: read-out: ED50 (the source's name)
[4] = Cytotoxicity against mouse 9PS cells; assay type: functional; details: for EC50: Mus musculus, read-out: ED50 (the source's name)
P388 [5] = assay: In vivo antitumor activity against mouse P388 cells at 50 mg/kg relative to control; assay type: functional
[6] = Cytotoxicity against human 9KB cells; assay type: functional; details: read-out: ED50 (the source's name)

Structure (SMILES) | EC50 (HT-29) [µg/mL] | EC50 (MCF7) [µg/mL] | EC50 (A549) [µg/mL] | also measured
O=c1cc(-c2ccccc2)oc2cc(O)cc(O)c12 [CHRYSIN] | – | – | – | IC50 [1]: 12 µg/mL (≈ 47.2 µM)
C[S+]([O-])C[C@@](C)(O)[C@H]1OC(=O)C=C2[C@@]13O[C@@H]3[C@H]1OC(=O)[C@@]3(C)[C@H]4O[C@H]4C[C@@]2(C)[C@@H]13 (some centres undefined) [PODOLACTONE C] | – | – | – | T/C (P388 [2]): 151%
COc1ccc(-c2coc3cc(OC)cc(O)c3c2=O)cc1 [4',7-DIMETHOXY-5-HYDROXYGENISTEIN] | – | – | – | IC50 [1]: > 50 µg/mL
COc1ccc(-c2coc3cc(O)cc(O)c3c2=O)cc1 [BIOCHANIN] | – | – | – | IC50 [1]: 25 µg/mL (≈ 87.9 µM); inhibition (INH) [3]: 30%
COc1cc2c(c3oc4c(O)cccc4c(=O)c13)C[C@H]([C@](C)(O)CO)O2 | 2.3 (≈ 6.42 µM) | > 10 | > 10 | –
COc1cc(C2Oc3c(OC)cc4c(=O)c5c(OC)cccc5oc4c3OC2CO)cc(OC)c1O (centres undefined) | > 10 | > 10 | > 10 | –
COc1cc2c(c3oc4c(O)cccc4c(=O)c13)[C@@H]1OC[C@@](C)(O)[C@@H]1O2 [PSOROFEBRIN] | 8.5 (≈ 23.9 µM) | > 10 | > 10 | –
COc1ccc(-c2cc(=O)c3c(O)cc(O)cc3o2)cc1 [ACACETIN] | – | – | – | IC50 [1]: 15 µg/mL (≈ 52.8 µM)
CC(C)c1oc(=O)cc2c1[C@@H](O)[C@H]1OC(=O)[C@@]3(C)[C@@H](O)[C@H]4O[C@H]4[C@@]2(C)[C@@H]13 [NAGILACTONE C] | – | – | – | T/C (P388 [2]): 145%
CCCCCCCCCCCC[C@H](O)[C@@H]1CC[C@@H]([C@@H](O)CCCCC(=O)CCCCCC2CC(CC(C)=O)C(=O)O2)O1 (some centres undefined) [ISOANNONACINONE] | 0.009 (≈ 0.0151 µM) | – | 0.07 (≈ 0.118 µM) | EC50 [4]: 0.5 µg/mL (≈ 0.841 µM)
COc1cc2c(c3oc4c(O)cccc4c(=O)c13)C[C@H]([C@](C)(O)COC(C)=O)O2 | 0.016 (≈ 0.04 µM) | 2.5 (≈ 6.24 µM) | 2 (≈ 5 µM) | –
CCCCCCCCCCCC[C@@H](O)[C@H]1CC[C@H]([C@H](O)CCCCC(=O)CCCCC[C@@H](O)CC2=C[C@H](C)OC2=O)O1 [ANNONACINONE] | 1 (≈ 1.68 µM) | – | 0.1 (≈ 0.168 µM) | ED50 [4]: 1 ×10⁻⁶ ug/ml
COc1cc(C2Oc3c(OC)cc4c(=O)c5ccccc5oc4c3OC2CO)cc(OC)c1O (centres undefined) | > 10 | > 10 | > 10 | –
COc1cc(C2Oc3c(OC)cc4c(=O)c5c(OC)cccc5oc4c3OC2CO)ccc1O (centres undefined) | > 10 | > 10 | > 10 | –
O=c1c(-c2ccc(O)cc2)coc2cc(O)cc(O)c12 [GENISTEIN] | – | – | – | IC50 [1]: 30 µg/mL (≈ 111 µM)
O=c1cc(-c2ccc(O)cc2)oc2cc(O)cc(O)c12 [APIGENIN] | – | – | – | IC50 [1]: 17 µg/mL (≈ 62.9 µM)
CC(C)[C@H]1OC(=O)C=C2[C@@]13O[C@@H]3[C@H]1OC(=O)[C@@]3(C)C=CC[C@@]2(C)[C@@H]13 [PODOLIDE] | – | – | – | T/C (P388 [5]): 127%
COc1cc(O)c2c3c1-c1c(O)cccc1[C@@H]1Oc4ccccc4[C@@H](CC2=O)[C@@H]31 [OHIOENSIN C] | 4 (≈ 10.4 µM) | 3 (≈ 7.76 µM) | > 10 | EC50 [4]: > 10 µg/mL; EC50 [6]: 10 µg/mL (≈ 25.9 µM)
COc1cc2c(c3oc4c(O)cccc4c(=O)c13)C[C@H]([C@@]1(C)CO1)O2 [PSOROSPERMIN] | – | 0.012 (≈ 0.0353 µM) | 0.0016 (≈ 0.0047 µM) | ED50 (HT-29): >1 ×10⁻⁵ ug/ml
CCCCCCCCCCCC[C@H](O)[C@@H]1CC[C@@H]([C@@H](O)CCCCC(O)CCCCCC2CC(CC(C)=O)C(=O)O2)O1 (some centres undefined) [ISOANNONACIN] | 0.002 (≈ 0.00335 µM) | – | 0.02 (≈ 0.0335 µM) | EC50 [4]: 3 µg/mL (≈ 5.03 µM)
COc1cc(C2Oc3c(OC)cc4c(=O)c5ccccc5oc4c3OC2CO)ccc1O (centres undefined) | 3 (≈ 6.87 µM) | > 10 | 3 (≈ 6.87 µM) | –
COc1cc(C2Oc3ccc4c(=O)c5c(O)cc(O)cc5oc4c3OC2CO)cc(OC)c1O (centres undefined) | 0.4 (≈ 0.854 µM) | > 10 | 3 (≈ 6.4 µM) | –
O=C1C[C@@H]2c3ccccc3O[C@H]3c4cccc(O)c4-c4c(O)cc(O)c1c4[C@H]23 [OHIOENSIN B] | > 10 | 7 (≈ 18.8 µM) | 8 (≈ 21.5 µM) | EC50 [4]: 1 µg/mL (≈ 2.69 µM); EC50 [6]: > 10 µg/mL
COc1ccc2c(c1O)-c1c(OC)cc(O)c3c1[C@@H]1[C@H](CC3=O)c3ccccc3O[C@@H]21 [OHIOENSIN E] | > 10 | > 10 | 6 (≈ 14.4 µM) | EC50 [4]: 1 µg/mL (≈ 2.4 µM); EC50 [6]: > 10 µg/mL
CCCCCCCCCCCC[C@@H](O)[C@H]1CC[C@H]([C@H](O)CCCC[C@H](O)CCCCC[C@@H](O)CC2=CC(C)OC2=O)O1 (some centres undefined) [ANNONACIN] | 3 (≈ 5.03 µM) | – | 0.001 (≈ 0.00168 µM) | ED50 [4]: 1 ×10⁻⁵ ug/ml
COc1cc(O)c2c3c1-c1c(ccc(O)c1O)[C@@H]1Oc4ccccc4[C@@H](CC2=O)[C@@H]31 [OHIOENSIN D] | > 10 | > 10 | > 10 | EC50 [4]: 1 µg/mL (≈ 2.49 µM); EC50 [6]: > 10 µg/mL
O=C1C[C@@H]2c3ccccc3O[C@H]3c4cc(O)ccc4-c4c(O)cc(O)c1c4[C@H]23 [OHIOENSIN A] | > 10 | 9 (≈ 24.2 µM) | > 10 | EC50 [4]: 1 µg/mL (≈ 2.69 µM); EC50 [6]: > 10 µg/mL
COc1cccc(C/C(=N/OS(=O)(=O)O)S[C@@H]2O[C@H](CO)[C@@H](O)[C@H](O)[C@H]2O)c1 [GLUCOLIMNANTHIN] | – | – | – | inhibition (INH) [1]: 71%
COc1ccc(-c2coc3cc(OC)cc(OC)c3c2=O)cc1 [BIOCHANIN A, DIMETHYL ETHER] | – | – | – | IC50 [1]: 50 µg/mL (≈ 160 µM)
COc1cc(C2Oc3c(OC)cc4c(=O)c5c(OC)cccc5oc4c3OC2COC(C)=O)ccc1O (centres undefined) | 4 (≈ 7.87 µM) | > 10 | 4 (≈ 7.87 µM) | –
